Experimental data from PMC2885048 (Molecular cancer therapeutics, 2010).

Tests used:
muIDO2 = molecular target: T1, muIDO2 (Mus musculus, UniProt Q8R0V5); assay: kynurenine assay in 293-T-REx cells expressing muIDO2; type: cell-based
T1 sequence (Q8R0V5 1-405): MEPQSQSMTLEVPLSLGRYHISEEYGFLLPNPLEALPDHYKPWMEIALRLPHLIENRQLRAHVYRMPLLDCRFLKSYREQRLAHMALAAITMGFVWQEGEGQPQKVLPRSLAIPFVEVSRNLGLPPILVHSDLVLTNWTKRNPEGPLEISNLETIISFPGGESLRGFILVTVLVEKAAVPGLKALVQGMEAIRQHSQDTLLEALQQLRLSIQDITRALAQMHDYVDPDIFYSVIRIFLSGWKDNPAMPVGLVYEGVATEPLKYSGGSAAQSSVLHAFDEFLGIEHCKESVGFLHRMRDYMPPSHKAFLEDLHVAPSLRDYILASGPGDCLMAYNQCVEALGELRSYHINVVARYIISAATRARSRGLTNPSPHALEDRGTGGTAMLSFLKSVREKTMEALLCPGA

muIDO1 = muIDO1 (Mus musculus, UniProt P28776); assay: kynurenine assay in 293-T-REx cells expressing muIDO1; type: cell-based
Chain of muIDO1 (P28776 whole entry): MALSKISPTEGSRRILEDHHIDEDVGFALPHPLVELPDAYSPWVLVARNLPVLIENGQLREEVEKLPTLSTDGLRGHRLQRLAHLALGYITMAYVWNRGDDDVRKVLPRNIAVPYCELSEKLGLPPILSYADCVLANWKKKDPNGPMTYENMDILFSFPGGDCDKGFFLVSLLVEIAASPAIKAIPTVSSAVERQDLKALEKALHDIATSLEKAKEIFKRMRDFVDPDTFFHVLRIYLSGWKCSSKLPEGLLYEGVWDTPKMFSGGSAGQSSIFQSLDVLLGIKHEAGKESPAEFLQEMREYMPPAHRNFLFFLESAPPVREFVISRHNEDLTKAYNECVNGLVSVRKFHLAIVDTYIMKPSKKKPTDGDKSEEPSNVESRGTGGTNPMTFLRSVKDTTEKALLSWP

C=CC1=C(C)C2=Cc3c(C=C)c(C)c4[n]3[Zn][n]3c(c(C)c(CCC(=O)O)c3=CC3=NC(=C4)C(C)=C3CCC(=O)O)=CC1=N2 [ZnPP]
IC50 (muIDO2): 7.1 µM
IC50 (muIDO1): 3.3 µM
